Laboratory results taken from article PMC6900558 (Acta Pharmaceutica Sinica. B, 2019).
Like-named read-outs stand apart in the source and are kept apart here.

Experiments:
Experimental logD = type: physicochemical; settings: PBS (aqueous phase; partition solvent not stated), pH 7.4
σ1R [1] = molecular target: T1, σ1R (Mus musculus, UniProt O55242); assay: In vivo PET-CT imaging with [^11C]HCC0923 in mice brain; parameters: species or system mice (BALB/c); settings: self-blocking, 12.5 mg/kg i.v. 5 min before tracer
guinea pig σ1 receptor [2] = molecular target: T2, guinea pig σ1 receptor (Cavia porcellus, UniProt Q60492); assay: Ex vivo σ1 receptor binding assay; settings: for Selectivity (σ2R/σ1R): ratio of σ2R Ki to σ1R Ki
σ1R [3] = molecular target: T1, σ1R; assay: In vivo PET-CT imaging with [^11C]HCC0929 in mice brain; parameters: species or system mice (BALB/c)
guinea pig σ1 receptor [4] = molecular target: T2, guinea pig σ1 receptor; settings: read-out: σ1R Kd or Ki; Kd or Ki not specified; cited from earlier work
guinea pig σ2 receptor = settings: read-out: σ2R Ki; cited from earlier work

T1 sequence (O55242 whole entry): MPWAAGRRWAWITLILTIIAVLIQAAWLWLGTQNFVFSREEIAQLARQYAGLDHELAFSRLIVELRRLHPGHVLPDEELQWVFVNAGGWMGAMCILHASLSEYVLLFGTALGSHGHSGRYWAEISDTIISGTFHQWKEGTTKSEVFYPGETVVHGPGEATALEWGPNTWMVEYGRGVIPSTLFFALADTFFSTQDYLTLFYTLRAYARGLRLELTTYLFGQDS
T2 sequence (Q60492 whole entry): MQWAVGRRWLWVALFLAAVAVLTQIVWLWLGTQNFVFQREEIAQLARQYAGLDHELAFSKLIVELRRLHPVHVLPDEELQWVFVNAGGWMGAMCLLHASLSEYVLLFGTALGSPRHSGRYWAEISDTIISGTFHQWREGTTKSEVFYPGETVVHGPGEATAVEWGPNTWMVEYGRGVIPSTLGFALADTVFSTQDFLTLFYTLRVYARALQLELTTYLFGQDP

SMILES	logD (Experimental logD)	reduction in [^11C]HCC0923 brain uptake (σ1R [1]) [%]	Ki (guinea pig σ1 receptor [2]) [nM]	Selectivity (σ2R/σ1R) (guinea pig σ1 receptor [2])	reduction of [^11C]HCC0929 binding in mice brain (σ1R [3]; pretreatment 2.99 mg/kg i.v., change between peak at ∼5 min and lowest at 60 min) [%]	Ki (guinea pig σ1 receptor [4]) [nM]	Ki (guinea pig σ2 receptor) [nM]	reduction in [^11C]HCC0929 mice brain uptake (σ1R [3]; self-blocking, 2.88 mg/kg i.v. 5 min before tracer) [%]
COc1ccc(-n2nc(OCCCN3CCCCC3)ccc2=O)cc1 [compound 13, 2-(4-Methoxyphenyl)-6-(3-(piperidin-1-yl)propoxy)pyridazin-3(2H)-one]	0.89 ± 0.06	~54	10.3 ± 1.1	111.3	–	–	–	–
CCCN1CCC=C(c2cc(-c3ccc(C)cc3)no2)C1 [PD 144418]	–	–	–	–	~67	4.3 ± 0.1	1380 ± 179	–
CN1CCN(CCCOc2ccc(=O)n(-c3ccc(Cl)c(Cl)c3)n2)CC1 [compound 15, 2-(3,4-Dichlorophenyl)-6-(3-(4-methylpiperazin-1-yl)propoxy)pyridazin-3(2H)-one]	1.73 ± 0.08	–	5.6 ± 0.7	272.8	–	–	–	~58
